Laboratory results as given in article PMC7587960 (Molecules, 2020).
In brackets after ≈: the same amount, converted by molar mass. Entries after “also recorded” stand apart in the source; their conditions may differ. Read-outs that look alike come from different tables or passages of the source.

How the values were obtained:
[1] = system: influenza A virus (A/Panama/2007/1999 (H3N2)); parameters: method as in PMID 31826721; details: pre-treatment for 1 h, human lung tissues, IAV A/Panama/2007/1999 (H3N2); cited from earlier work
[2] = target: viral polymerase complex (PA, PB1, NP, Strep-PB2) (Influenza A virus, UniProt P03427+P03430+P15659); assay type: cell-based
[3] = system: Na+/K+-ATPase; parameters: method as in PMID 30798081; details: cited from earlier work
[4] = system: influenza A virus (strain A/WSN/33 (H1N1))
[5] = system: influenza A virus (strain A/WSN/33 (H1N1)) RNA transcription; assay type: cell-based
[6] = in vitro; details: dog
Method: (§1) A549 and MDCK cells were seeded in 96-well plates and grown overnight. […] Next, 15 µL of sterile water or Triton X-100 10% (CytoSelect^TM LDH Cytotoxicity Assay Kit) were added to each well in DMEM or MEM, for 10 min, at room temperature. Supernatants were collected and stored at −80 °C until used. Supernatants (90 µL) were transferred to clean 96-well plates and 10 µL of LDH Reagent (CytoSelect^TM LDH Cytotoxicity Assay Kit) were added to each sample and incubated for 20 min. Quantification was performed using a spectrophotometer at 405 nm. The concentration of each sample that reduced cell viability by 50% was estimated as CC50.

[7] = system: human tumor-free lung tissue explants; assay: Viability of human tumor-free lung explants (LDH release); details: treated lung tissues, 48 h p.i.
[8] = system: influenza A virus (strain A/WSN/33 (H1N1)); assay: microbe, parasite or virus in culture; details: MDCK, 24 h, read-out: IC50 IAV (Strain WSN/33 (H1N1)), MDCK cells
[9] = system: influenza A virus (strain A/WSN/33 (H1N1)) proteins PB1, NP, M1, NS1; assay type: cell-based
[10] = in vitro; details: human
Method: as §1

[11] = system: influenza A virus (strain A/WSN/33 (H1N1)); details: for IC50: read-out: IC50 IAV (Strain WSN/33 (H1N1)), A549 cells
[12] = system: influenza A virus (strain A/WSN/33 (H1N1)); assay: microbe, parasite or virus in culture; details: A549, 24 h, read-out: IC50 IAV (Strain WSN/33 (H1N1)), A549 cells
[13] = target: IAV polymerase (PB1, PB2, PA, NP) (Influenza A virus, UniProt P03427+P03430+P15659); assay type: cell-based
[14] = system: influenza A virus (A/Panama/2007/1999 (H3N2))
[15] = system: IAV (strain A/PR/8/34); parameters: method as in PMID 21899996; details: MDCK cells, cited from earlier work

| Compound | viral polymerase complex assembly (PA, PB1, NP in complex precipitates) [2] | Na+/K+-ATPase inhibition [3] | fold by which the IC50 of oleandrigenin-β-D-glucosyl (1→4)-β-D-digitalose is higher than that of the compound [4] [fold] | viral mRNA levels (NP segment 5, M1 segment 7) [5] | CC50 [6] [nM] | tissue integrity / tissue toxicity (LDH release) [7] | IC50 [8] [nM] | early (NS1, NP, PB1) and late (M1) viral protein expression [9] | CC50 [10] [nM] | reduction of viral titers [11] [%] | IC50 [11] [nM] | IC50 [12] [nM] | decrease of polymerase activity [13] | viral replication / viral titers [14] | also measured |
| --- | --- | --- | --- | --- | --- | --- | --- | --- | --- | --- | --- | --- | --- | --- | --- |
| CO/C1=C\C(C)=C\[C@@H](C)[C@@H](O)[C@@H](C)C/C(C)=C/C=C/[C@H](OC)[C@@H]([C@@H](C)[C@@H](O)[C@H](C)[C@@]2(O)C[C@@H](O)[C@H](C)[C@@H](C(C)C)O2)OC1=O [bafilomycin A] |  |  |  |  |  |  |  |  |  |  |  |  |  |  | IAV replication in lung tissues [1]: abolished IAV replication |
| C[C@]12CC[C@H](NC(=O)CNCCO)C[C@H]1CC[C@@H]1[C@@H]2CC[C@]2(C)[C@@H](C3=CC(=O)OC3)CC[C@]12O [C10] | interfered | inhibited | 19 | decreased | > 5000 | did not reduce tissue integrity | ~60 | decreased | > 5000 | > 50 | 57 ± 2 | ~60 | > 50% | completely abrogated viral replication; also recorded: below the detection limit | reduction of viral titers [14]: 4 logs |
| C[C@]12CC[C@H](O)C[C@H]1CC[C@@H]1[C@@H]2CC[C@]2(C)[C@@H](C3=CC(=O)OC3)CC[C@]12O [Digitoxigenin, digitoxigenin, reference compound] |  |  |  |  |  |  | 72 ± 5 |  |  | > 50 |  | 70 ± 10 |  |  | SI (CC50/IC50), MDCK cells [4]: 88.052; CC50 at 24 h [6]: > 5000 nM; CC50 at 24 h [10]: > 5000 nM; SI (CC50/IC50), A549 cells [11]: 92.366 |
| COC1C(O)C(OC2CCC3(C)C(CCC4C3CCC3(C)C(C5=CC(=O)OC5)C(OC(C)=O)CC43O)C2)OC(C)C1OC1OC(CO)C(O)C(O)C1O [oleandrigenin-β-D-glucosyl (1→4)-β-D-digitalose] |  |  |  |  |  |  |  |  |  |  |  |  |  |  | IC50 ([15]; strain A/PR/8/34, converted from µg/mL, read-out: IC50, IAV titer reduction): 1140 nM; IC50, IAV titer reduction ([15]; strain A/PR/8/34): 0.86 µg/mL (≈ 1.14 µM) |
| C[C@]12CC[C@H](NC(=O)CO)C[C@H]1CC[C@@H]1[C@@H]2CC[C@]2(C)[C@@H](C3=CC(=O)OC3)CC[C@]12O [C11, 3β-(hydroxyacetyl)amino-3-deoxydigitoxigenin] | interfered | inhibited | 17 | decreased | > 5000 | > 2 fold over control | ~60 | decreased | > 5000 | > 50 | 62 | ~60 | approximately 40% | abolished viral replication; also recorded: below the detection limit | IC50 ([4]; read-out: IC50 IAV (Strain WSN/33 (H1N1)), MDCK cells): 66 ± 6 nM; reduction of polymerase activity [13]: no significant reduction |
